{"source": "patent US20250312365A1", "about": "“METHODS FOR INHIBITION OF SQUAMOUS CARCINOMA CELLS USING CERAMIDE MODULATORS” (The Trustees of Indiana University, priority 2024, published 2025)", "key": {"MMP2 [1]": {"system": "MMP2", "assay": "MMP2 mRNA expression in SCC4 cells", "type": "cell-based, human", "details": "relative to control cells", "experimental": "(§1) Expression of these genes was also assessed in human tongue squamous cell carcinoma SCC4 cells."}, "OECM1 cells": {"system": "OECM1 cells", "assay": "Transwell (insert) transmigration assay, OECM1", "type": "cell-based, human", "details": "1 μg/ml, compared to sham control", "experimental": "A scratch wound healing assay was performed according to known methods to assess the effects of PGDHC on the migration of human oral squamous cell carcinoma cells. […] The scratch wound healing assay was validated with a transwell migration assay."}, "[2]": {"system": "tongue squamous carcinoma cells (SCC9)", "assay": "Cell viability/proliferation assay (WST-1) in SCC9 cells", "type": "cell-based, human", "details": "0.1 μg/ml and 1 μg/ml; WST-1", "excerpt": "(§2) In specific examples, colorimetric assays can be used to assess cellular viability and proliferation of cell cultures, such as MTT, WST-1, and resazurin assays. See, e.g., Präbst et al., Methods Mol Biol. 2017:1601:1-17.\n(§3) Various cell lines were exposed to PGDHC, including human gingival squamous carcinoma cells (OECM1), tongue squamous carcinoma cells (SCC4, SCC9), and healthy human gingival epithelial control cells (OBA9) in vitro.\n(§4) LCL521 is a dose-dependent acid ceramidase inhibitor. Comparison of the concentration-dependent effects of an acid ceramidase inhibitor, LCL521 (MedChemExpress®), and the bacterial-isolated a15:0-15:0PE phospholipid on the viability of healthy human epithelial, OBA9, and oral squamous cancer cell lines, OECM1 and SCC9, in vitro was evaluated. […] (FIG. 15A). […] (FIG. 15B)."}, "[3]": {"system": "healthy human gingival epithelial control cells (OBA9)", "assay": "Cell viability/proliferation assay (WST-1) in healthy OBA9 cells", "type": "cell-based", "details": "0.1 μg/ml and 1 μg/ml; WST-1", "excerpt": "as §2, §3, §4"}, "[4]": {"system": "ceramide and dihydroceramide in OECM1 cells", "assay": "Intracellular ceramide and dihydroceramide by mass-spectrometry in OECM1 cells", "type": "cell-based, human", "excerpt": "Cellular levels of ceramides and dihydroceramides, and cellular accumulation or increase thereof, can be determined according to known methods, such as mass spectrometry. For example, Scherer et al., J Lipid Res. 2010 July; 51(7): 2001-2011 and Smeden et al., J Lipid Res. 2011 June; 52(6):1211-1221 describe LC/MS/MS methods for determining ceramide levels in cells.\nTo assess intracellular ceramide levels, the concentration of ceramide and dihydroceramide in OECM1 cells exposed to PGDHC was measured using mass-spectrometry. […] No effect of 0.1 μg/ml of PGDHC on ceramide and dh-ceramide concentrations in OECM1 cells was observed. (FIG. 10C)"}, "NFkB": {"system": "NFkB", "assay": "NFkB mRNA expression in SCC4 cells", "type": "cell-based, human", "details": "relative to control cells", "experimental": "as §1"}, "N-cadherin": {"system": "N-cadherin", "assay": "Western blot of N-cadherin in OECM1 cells", "type": "cell-based, human", "details": "24 h of treatment", "experimental": "(§5) To determine the effect of PGDHC on cell markers involved in metastasis, the protein levels of p-STAT3, EMT markers, E-cadherin, N-cadherin, and Vimentin in OECM1 cells following in vitro exposure to PGDHC were determined by Western blot assay."}, "MMP2 [5]": {"system": "MMP2", "assay": "MMP2 mRNA expression in OECM1 cells", "type": "cell-based, human", "experimental": "(§6) NF-kB, MMP-2, ADAM-17, and IL6 are implicated in the degradation of the expression of genes involved in the cell basement membrane and extracellular matrix of oral squamous cell carcinoma. Accordingly, the expression of NFkB, MMP2, ADAM17, and IL6 in OECM1 cells following exposure to 0.1 μg/ml PGDHC and 1 μg/ml PGDHC was determined.\n(§7) Sphingosine-1-phosphate (S1P) sphingolipid plays an essential role in the survival, migration, and degradation of the basement membrane and extracellular matrix of oral squamous cell carcinoma (Yura et al., Cancers (Basel). 2020 August; 12(8): 2062). To determine whether PGDHC can inhibit such properties, the combined effects of PGDHC and S1P on OECM1 gene expression was tested in vitro."}, "ADAM17": {"system": "ADAM17", "assay": "ADAM17 mRNA expression in OECM1 cells", "type": "cell-based, human", "details": "in combination with S1P", "experimental": "as §6, §7"}, "E-cadherin": {"system": "E-cadherin", "assay": "Western blot of E-cadherin in OECM1 cells", "type": "cell-based, human", "details": "24 h of treatment", "experimental": "as §5"}, "IL6": {"system": "IL6", "assay": "IL6 mRNA expression in OECM1 cells", "type": "cell-based, human", "experimental": "as §6, §7"}, "[6]": {"system": "healthy epithelial OBA9 cells", "assay": "Untargeted metabolomic pathway analysis (LC/MS) in healthy OBA9 cells", "type": "cell-based, human", "details": "1 μg/ml for 6 h", "excerpt": "Based on this analysis, at least 5 different cell survival metabolomic pathways, underlined in red were diminished in OSCC (OECM1 and SCC9), but not in healthy epithelial OBA9 cells in response to PGDHC. The 5 pathways were folate metabolism, arginine and proline metabolism, glycine and serine metabolism, de novo triacylglycerol biosynthesis, and mitrochondrial electron transport chain.\nThe Warburg effect is a metabolic phenomenon observed in many cancer cells, where the cells preferentially use glycolysis metabolism to produce energy instead of oxidative phosphorylation. The Warburg effect is a hallmark of rapid cancer cell growth. Therefore, we evaluated whether PGDHC altered Warburg effect in OSCM1 and SCC9 oral squamous cell carcinoma cells (FIG. 17A), but not healthy epithelial OBA9 cells (FIG. 17B), in vitro. Cells were stimulated with PGDHC (1 μg/ml) for 6 h and the untargeted metabolomic analysis was performed using LC/MS mass-spectrometry. Polar and lipid metabolites were analyzed with HILIC/MS and LC/MS, respectively. […]\nBased upon the impact of PGDHC on the Warburg effect in OSCC cells, we further analyzed the levels of cancer-survival metabolites adenosine triphosphate (ATP) and glucose in the OECM1, SCC9, and OBA9 cells described in Example 11. […]"}}, "note": "Entries after “also recorded” stand apart in the source; their conditions may differ."}
{"substance": "phosphoglycerol dihydroceramide [PGDHC]", "values": [{"measurement": "MMP2 mRNA in SCC4 cells", "setting": "MMP2 [1]", "value": "significantly diminished"}, {"measurement": "number of transmigrated OECM1 cells", "setting": "OECM1 cells", "value": "significantly reduced"}, {"measurement": "proliferation of SCC9 cells", "setting": "[2]", "value": "did not have an observable effect"}, {"measurement": "proliferation of healthy control OBA9 cells", "setting": "[3]", "value": "did not have a detectable effect; also recorded: did not have an observable effect"}, {"measurement": "ceramide and dh-ceramide concentrations in OECM1 cells", "setting": "[4]; 0.1 μg/ml", "value": "No effect"}, {"measurement": "intracellular concentration of ceramide C20:0, C26:0 and C26:1", "setting": "[4]; 1 μg/ml, OECM1 cells", "value": "significantly elevated"}, {"measurement": "intracellular concentration of dihydroceramide dhC14:0, dhC16:0, dhC18:0, dhC20:0, dhC20:1, dhC22:1, dhC22:0, dhC24:1, dhC24:0, dhC26:1", "setting": "[4]; 1 μg/ml, OECM1 cells", "value": "significantly elevated"}, {"measurement": "total intracellular concentration of dihydroceramides", "setting": "[4]; 1 μg/ml, OECM1 cells, compared to ceramides", "value": "significantly elevated; also recorded: led to the accumulation"}, {"measurement": "accumulation of C16:0 dihydroceramide (dh-C16:0)", "setting": "[4]; OECM1 cells", "value": "promotes the accumulation"}, {"measurement": "NFkB mRNA in SCC4 cells", "setting": "NFkB", "value": "significantly diminished"}, {"measurement": "protein level of N-cadherin in OECM1 cells", "setting": "N-cadherin", "value": "little to no detectable effect"}, {"measurement": "expression of MMP2 mRNA in OECM1 cells", "setting": "MMP2 [5]; 1 μg/ml", "value": "significantly inhibited"}, {"measurement": "MMP2 mRNA levels in OECM1 cells exposed to S1P", "setting": "MMP2 [5]; in combination with S1P", "value": "a significant effect was not observed"}, {"measurement": "ADAM17 mRNA levels in OECM1 cells exposed to S1P", "setting": "ADAM17", "value": "a significant effect was not observed"}, {"measurement": "protein level of E-cadherin in OECM1 cells", "setting": "E-cadherin", "value": "little to no detectable effect"}, {"measurement": "expression of IL6 mRNA in OECM1 cells", "setting": "IL6; 1 μg/ml", "value": "significantly inhibited"}, {"measurement": "expression of IL6 mRNA in OECM1 cells exposed to S1P", "setting": "IL6; in combination with S1P", "value": "significantly inhibited"}, {"measurement": "Warburg effect in healthy OBA9 cells", "setting": "[6]", "value": "no effect"}]}
